Data: patent US20070219186A1, “Pyrazolo[1,5-A]pyrimidine derivatives and methods of use thereof” (priority 2006, published 2007)
pIC50: −log10 of the molar value. Like-named read-outs stand apart in the source and are kept apart here.

Molecular target: T1, human B-Raf (Homo sapiens, UniProt P15056)
T1 construct: Flag; GST; made in house; host or cells: Sf9 insect cells (B-Raf); E. coli (MEK1-GST)
Assay: B-Raf Kinase to MEK1 ELISA
Assay type: biochemical
Conditions: for inhibition at 10 µM: read-out: % Inhib./10 uM
In short: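 Read-out is a DELFIA europium signal from phospho-MEK1 (Ser217/221) antibody after capture of GST-MEK1 (50 nM final) on anti-GST plates. Phosphorylation comes from Sf9-expressed Flag/GST human B-Raf (~20 ng) with ATP/MgCl2, 60 min RT, pH 7.2 MOPS.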

[1] = median, cpd concentrations from 10 μM to 30 nM in half log dilutions, read-out: Median IC50

T1 sequence (P15056 whole entry): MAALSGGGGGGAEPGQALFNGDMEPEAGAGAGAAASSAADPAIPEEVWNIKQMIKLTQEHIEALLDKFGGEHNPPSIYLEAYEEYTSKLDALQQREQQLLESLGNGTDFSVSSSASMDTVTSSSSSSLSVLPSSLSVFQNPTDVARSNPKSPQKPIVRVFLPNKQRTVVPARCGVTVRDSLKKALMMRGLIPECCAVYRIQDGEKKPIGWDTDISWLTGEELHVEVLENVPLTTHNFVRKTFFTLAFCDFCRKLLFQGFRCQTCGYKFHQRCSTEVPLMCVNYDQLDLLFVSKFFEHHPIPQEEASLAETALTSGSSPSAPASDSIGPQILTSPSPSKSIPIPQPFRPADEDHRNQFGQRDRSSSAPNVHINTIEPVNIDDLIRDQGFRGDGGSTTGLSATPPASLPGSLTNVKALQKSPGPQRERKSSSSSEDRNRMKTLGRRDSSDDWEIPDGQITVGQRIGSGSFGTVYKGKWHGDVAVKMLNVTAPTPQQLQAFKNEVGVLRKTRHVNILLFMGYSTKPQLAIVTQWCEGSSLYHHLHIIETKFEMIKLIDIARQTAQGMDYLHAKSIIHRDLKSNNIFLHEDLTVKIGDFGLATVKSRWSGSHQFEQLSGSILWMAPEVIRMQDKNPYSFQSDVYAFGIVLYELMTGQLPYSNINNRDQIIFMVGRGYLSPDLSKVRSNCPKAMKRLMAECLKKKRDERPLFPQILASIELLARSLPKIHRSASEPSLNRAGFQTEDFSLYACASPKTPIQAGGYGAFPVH

SMILES | pIC50 [1] | inhibition at 10 µM [%] | pIC50
O=C(Nc1cccc(-c2ccnc3cc(-c4ccncc4)nn23)c1)c1ccccc1Cl [Example 145, 2-chloro-N-[3-(2-pyridin-4-ylpyrazolo[1,5-a]pyrimidin-7-yl)phenyl]benzamide] | < 5.00 | 24 | –
COc1cccc(C(=O)Nc2cccc(-c3ccnc4cc(-c5ccncc5)nn34)c2)c1 [Example 146, 3-methoxy-N-[3-(2-pyridin-4-ylpyrazolo[1,5-a]pyrimidin-7-yl)phenyl]benzamide] | – | – | 5.40
Cc1cccc(C(=O)Nc2cccc(-c3ccnc4cc(-c5ccncc5)nn34)c2)c1 [Example 147, 3-methyl-N-[3-(2-pyridin-4-ylpyrazolo[1,5-a]pyrimidin-7-yl)phenyl]benzamide] | 5.85 | 66 | –
Cc1ccc(C(=O)Nc2cccc(-c3ccnc4cc(-c5ccncc5)nn34)c2)cc1 [Example 148, 4-methyl-N-[3-(2-pyridin-4-ylpyrazolo[1,5-a]pyrimidin-7-yl)phenyl]benzamide] | < 5.00 | 20 | –
O=C(Nc1cccc(-c2ccnc3cc(-c4ccncc4)nn23)c1)c1ccc(Cl)c(Cl)c1 [Example 149, 3,4-dichloro-N-[3-(2-pyridin-4-ylpyrazolo[1,5-a]pyrimidin-7-yl)phenyl]benzamide] | – | 72 | 5.90
O=C(Nc1cccc(-c2ccnc3cc(-c4ccncc4)nn23)c1)c1cccc(Cl)c1 [Example 150, 3-chloro-N-[3-(2-pyridin-4-ylpyrazolo[1,5-a]pyrimidin-7-yl)phenyl]benzamide] | – | – | 5.96
O=C(Nc1cccc(-c2ccnc3cc(-c4ccncc4)nn23)c1)c1ccc(Cl)cc1 [Example 151, 4-chloro-N-[3-(2-pyridin-4-ylpyrazolo[1,5-a]pyrimidin-7-yl)phenyl]benzamide] | < 5.00 | 33 | –
O=C(Nc1cccc(-c2ccnc3cc(-c4cccnc4)nn23)c1)c1cccc(C(F)(F)F)c1 [Example 152, N-[3-(2-pyridin-3-ylpyrazolo[1,5-a]pyrimidin-7-yl)phenyl]-3-(trifluoromethyl)benzamide] | < 5.00 | – | –
O=C(Nc1cccc(-c2ccnc3ccnn23)c1)c1cccc(C(F)(F)F)c1 [Example 153, N-(3-pyrazolo[1,5-a]pyrimidin-7-ylphenyl)-3-(trifluoromethyl)benzamide] | < 5.00 | 31 | –
O=C(Nc1cccc(-c2ccnc3c(-c4cccnc4)cnn23)c1)c1cccc(C(F)(F)F)c1 [Example 155, N-[3-(3-pyridin-3-ylpyrazolo[1,5-a]pyrimidin-7-yl)phenyl]-3-(trifluoromethyl)benzamide] | – | 103 | 7.02
Nc1cccc(-c2cnn3c(-c4cccc(NC(=O)c5cccc(C(F)(F)F)c5)c4)ccnc23)c1 [Example 156, N-{3-[3-(3-aminophenyl)pyrazolo[1,5-a]pyrimidin-7-yl]phenyl}-3-(trifluoromethyl)benzamide] | – | 86 | 7.00
CN(C)c1ccc(-c2cnn3c(-c4cccc(NC(=O)c5cccc(C(F)(F)F)c5)c4)ccnc23)cc1 [Example 157, N-(3-{3-[4-(dimethylamino)phenyl]pyrazolo[1,5-a]pyrimidin-7-yl}phenyl)-3-(trifluoromethyl)benzamide] | – | 66 | 6.52
O=C(Nc1cccc(-c2ccnc3c(-c4ccc(Cl)cc4)cnn23)c1)c1cccc(C(F)(F)F)c1 [Example 158, N-{3-[3-(4-chlorophenyl)pyrazolo[1,5-a]pyrimidin-7-yl]phenyl}-3-(trifluoromethyl)benzamide] | < 5.00 | 39 | –
Cc1ccc(-c2cnn3c(-c4cccc(NC(=O)c5cccc(C(F)(F)F)c5)c4)ccnc23)cc1 [Example 160, N-{3-[3-(4-methylphenyl)pyrazolo[1,5-a]pyrimidin-7-yl]phenyl}-3-(trifluoromethyl)benzamide] | – | 51 | –
Cc1ccc(C(=O)Nc2cccc(-c3ccnc4c(Br)cnn34)c2)cc1C(F)(F)F [Example 161, N-[3-(3-bromopyrazolo[1,5-a]pyrimidin-7-yl)phenyl]-4-methyl-3-(trifluoromethyl)benzamide] | – | 87 | 6.17
COc1ccc(C(=O)Nc2cccc(-c3ccnc4c(Br)cnn34)c2)cc1C(F)(F)F [Example 162, N-[3-(3-bromopyrazolo[1,5-a]pyrimidin-7-yl)phenyl]-4-methoxy-3-(trifluoromethyl)benzamide] | – | 75 | 5.68
O=C(Nc1cccc(-c2ccnc3c(Br)cnn23)c1)c1ccc(F)c(C(F)(F)F)c1 [Example 163, N-[3-(3-bromopyrazolo[1,5-a]pyrimidin-7-yl)phenyl]-4-fluoro-3-(trifluoromethyl)benzamide] | 5.38 | 74 | –

SMILES | pIC50 [1] | inhibition at 10 µM [%] | pIC50
O=C(Nc1cccc(-c2ccnc3c(Br)cnn23)c1)c1ccc(Cl)c(C(F)(F)F)c1 [Example 164, N-[3-(3-bromopyrazolo[1,5-a]pyrimidin-7-yl)phenyl]-4-chloro-3-(trifluoromethyl)benzamide] | < 5.00 | 58 | –
O=C(Nc1cccc(-c2ccnc3c(Br)cnn23)c1)c1ccc(Cl)c(Cl)c1 [Example 165, N-[3-(3-bromopyrazolo[1,5-a]pyrimidin-7-yl)phenyl]-3,4-dichlorobenzamide] | < 5.00 | 64 | –
O=C(Nc1cccc(-c2ccnc3c(Br)cnn23)c1)Nc1cccc(C(F)(F)F)c1 [Example 166, N-[3-(3-bromopyrazolo[1,5-a]pyrimidin-7-yl)phenyl]-N′-[3-(trifluoromethyl)phenyl]urea] | 5.88 | 94 | –
O=C(Nc1cccc(-c2ccnc3c(Br)cnn23)c1)Nc1ccc(F)c(C(F)(F)F)c1 [Example 167, N-[3-(3-bromopyrazolo[1,5-a]pyrimidin-7-yl)phenyl]-N′-[4-fluoro-3-(trifluoromethyl)phenyl]urea] | 5.30 | 59 | –
O=C(Nc1cccc(-c2ccnc3c(Br)cnn23)c1)Nc1ccc(Cl)c(Cl)c1 [Example 168, N-[3-(3-bromopyrazolo[1,5-a]pyrimidin-7-yl)phenyl]-N′-(3,4-dichlorophenyl)urea] | 5.62 | 58 | –
Cc1ccc(C(=O)Nc2cccc(-c3ccnc4c(-c5cccnc5)cnn34)c2)cc1C(F)(F)F [Example 169, 4-methyl-N-[3-(3-pyridin-3-ylpyrazolo[1,5-a]pyrimidin-7-yl)phenyl]-3-(trifluoromethyl)benzamide] | – | 96 | 7.15
COc1ccc(C(=O)Nc2cccc(-c3ccnc4c(-c5cccnc5)cnn34)c2)cc1C(F)(F)F [Example 170, 4-methoxy-N-[3-(3-pyridin-3-ylpyrazolo[1,5-a]pyrimidin-7-yl)phenyl]-3-(trifluoromethyl)benzamide] | – | 96 | 6.85
O=C(Nc1cccc(-c2ccnc3c(-c4cccnc4)cnn23)c1)c1ccc(F)c(C(F)(F)F)c1 [Example 171, 4-fluoro-N-[3-(3-pyridin-3-ylpyrazolo[1,5-a]pyrimidin-7-yl)phenyl]-3-(trifluoromethyl)benzamide] | 6.42 | 87 | –
O=C(Nc1cccc(-c2ccnc3c(-c4cccnc4)cnn23)c1)c1ccc(Cl)c(C(F)(F)F)c1 [Example 172, 4-chloro-N-[3-(3-pyridin-3-ylpyrazolo[1,5-a]pyrimidin-7-yl)phenyl]-3-(trifluoromethyl)benzamide] | 6.00 | 81 | –
O=C(Nc1cccc(-c2ccnc3c(-c4cccnc4)cnn23)c1)Nc1cccc(C(F)(F)F)c1 [Example 173, N-[3-(3-pyridin-3-ylpyrazolo[1,5-a]pyrimidin-7-yl)phenyl]-N′-[3-(trifluoromethyl)phenyl]urea] | 6.36 | 85 | –
O=C(Nc1cccc(-c2ccnc3c(-c4cccnc4)cnn23)c1)Nc1ccc(Cl)c(C(F)(F)F)c1 [Example 174, N-[4-chloro-3-(trifluoromethyl)phenyl]-N′-[3-(3-pyridin-3-ylpyrazolo[1,5-a]pyrimidin-7-yl)phenyl]urea] | 6.96 | 96 | –
O=C(Nc1cccc(-c2ccnc3c(-c4cccnc4)cnn23)c1)Nc1ccc(Cl)c(Cl)c1 [Example 175, N-(3,4-dichlorophenyl)-N′-[3-(3-pyridin-3-ylpyrazolo[1,5-a]pyrimidin-7-yl)phenyl]urea] | 6.35 | 70 | –
CCOC(=O)c1cnn2c(-c3cccc(NC(=O)c4cccc(C(F)(F)F)c4)c3)c(C)cnc12 [Example 176, ethyl 6-methyl-7-(3-{[3-(trifluoromethyl)benzoyl]amino}phenyl)pyrazolo[1,5-a]pyrimidine-3-carboxylate] | 6.44 | 86 | –
Cc1cnc2cc(-c3ccncc3)nn2c1-c1cccc(NC(=O)c2cccc(C(F)(F)F)c2)c1 [Example 177, N-[3-(6-methyl-2-pyridin-4-ylpyrazolo[1,5-a]pyrimidin-7-yl)phenyl]-3-(trifluoromethyl)benzamide] | 6.70 | 95 | –
Cc1cnc2c(Br)cnn2c1-c1cccc(NC(=O)c2cccc(C(F)(F)F)c2)c1 [Example 178, N-[3-(3-bromo-6-methylpyrazolo[1,5-a]pyrimidin-7-yl)phenyl]-3-(trifluoromethyl)benzamide] | – | 67 | 5.50
Cc1cnc2c(-c3cccnc3)cnn2c1-c1cccc(NC(=O)c2cccc(C(F)(F)F)c2)c1 [Example 179, N-[3-(6-methyl-3-pyridin-3-ylpyrazolo[1,5-a]pyrimidin-7-yl)phenyl]-3-(trifluoromethyl)benzamide] | – | 90 | 6.19
